Experimental data: ChEMBL document CHEMBL5465560, “Selectivity Literature for EUbOPEN Chemogenomic Library” (2024)
Each block holds one molecule with its values, some of them ahead of it.

How the values were obtained:
[1] = molecular target: Ribosomal protein S6 kinase alpha-5 (Homo sapiens) (UniProt O75582); details: at 10 µM
[2] = molecular target: Ribosomal protein S6 kinase alpha-2 (Homo sapiens) (UniProt Q15349); details: at 10 µM
[3] = molecular target: T1, Aurora kinase A (Homo sapiens) (UniProt O14965); assay: Selectivity interaction (ActivX KiNativ screen (kinase selectivity in THP-1 cell lysates)) EUB0000639a STK6; assay type: subcellular; details: lysate, at 1 µM
T1 sequence (whole entry): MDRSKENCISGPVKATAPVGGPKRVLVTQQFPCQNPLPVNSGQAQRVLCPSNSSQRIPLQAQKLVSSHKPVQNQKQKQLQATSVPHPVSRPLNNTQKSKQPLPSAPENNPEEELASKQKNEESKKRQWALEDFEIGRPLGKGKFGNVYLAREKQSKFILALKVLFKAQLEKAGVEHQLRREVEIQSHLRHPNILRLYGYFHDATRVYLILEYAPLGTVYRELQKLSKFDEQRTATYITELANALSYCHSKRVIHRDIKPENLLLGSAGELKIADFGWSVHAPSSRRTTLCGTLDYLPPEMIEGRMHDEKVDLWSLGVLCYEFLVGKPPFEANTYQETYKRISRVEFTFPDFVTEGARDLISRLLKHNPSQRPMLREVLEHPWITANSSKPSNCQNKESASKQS

[4] = molecular target: Receptor tyrosine-protein kinase erbB-2 (Homo sapiens, UniProt P04626); assay: Selectivity interaction (Kinase panel (Invitrogen)) EUB0000639a ERBB2; details: at 200 nM
[5] = molecular target: T2, Muscarinic acetylcholine receptor M2 (Homo sapiens) (UniProt P08172); assay: Selectivity interaction (Safety Panel 44tm (Eurofins)) EUB0000162b CHRM2; details: at 10 µM
T2 sequence (whole entry): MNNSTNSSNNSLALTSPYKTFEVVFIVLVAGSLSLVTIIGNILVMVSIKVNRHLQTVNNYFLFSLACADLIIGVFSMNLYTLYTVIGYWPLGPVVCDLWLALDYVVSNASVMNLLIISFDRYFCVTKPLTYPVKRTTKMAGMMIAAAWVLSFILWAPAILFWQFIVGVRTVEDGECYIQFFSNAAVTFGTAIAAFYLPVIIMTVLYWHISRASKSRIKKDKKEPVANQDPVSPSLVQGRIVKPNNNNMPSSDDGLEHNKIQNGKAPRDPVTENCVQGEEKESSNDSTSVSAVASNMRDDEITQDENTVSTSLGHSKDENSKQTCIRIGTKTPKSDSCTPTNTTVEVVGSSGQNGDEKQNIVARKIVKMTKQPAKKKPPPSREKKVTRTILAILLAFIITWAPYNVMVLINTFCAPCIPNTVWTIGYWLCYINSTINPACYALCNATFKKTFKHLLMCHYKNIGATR

[6] = molecular target: Ribosomal protein S6 kinase alpha-3 (Homo sapiens, UniProt P51812); assay: Selectivity interaction (KinomeScan (DiscoverX)) EUB0000695a RPS6KA3; details: at 100 nM
[7] = molecular target: Mitogen-activated protein kinase kinase kinase 10 (Homo sapiens) (UniProt Q02779); assay: Selectivity interaction (KinomeScan (DiscoverX)) EUB0000595a MAP3K10; details: at 10 µM
[8] = molecular target: RAF proto-oncogene serine/threonine-protein kinase (Homo sapiens) (UniProt P04049); assay: Selectivity interaction (KinomeScan (DiscoverX)) EUB0001049a RAF1; details: at 1 µM
[9] = molecular target: MAP/microtubule affinity-regulating kinase 3 (Homo sapiens) (UniProt P27448); assay: Selectivity interaction (Ambit KINOMEscan and KiNATiv profiling in Jurkat cells) EUB0000090b MARK3; assay type: cell-based; details: at 1 µM
[10] = molecular target: Serine/threonine-protein kinase 35 (Homo sapiens) (UniProt Q8TDR2); assay: Selectivity interaction (Ambit KINOMEscan and KiNATiv profiling in Jurkat cells) EUB0000090b STK35; assay type: cell-based; details: at 1 µM
[11] = molecular target: Calcium/calmodulin-dependent protein kinase type II subunit beta (Homo sapiens) (UniProt Q13554); assay: Selectivity interaction (Kinase panel (DSF assay)) EUB0001558a CAMK2B
[12] = molecular target: Ephrin type-A receptor 2 (Homo sapiens) (UniProt P29317); assay: Selectivity interaction (KinomeScan (DiscoverX)) EUB0000655a EPHA2; details: at 10 µM
[13] = molecular target: Proto-oncogene tyrosine-protein kinase ROS (Homo sapiens) (UniProt P08922); assay: Selectivity interaction (KinomeScan (DiscoverX)) EUB0000655a ROS1; details: at 10 µM
[14] = molecular target: Glycogen synthase kinase-3 alpha (Homo sapiens, UniProt P49840); assay: Selectivity interaction (Kinase panel (KiNativ target engagement assay in Jurkat cells)) EUB0001635a GSK3A; assay type: cell-based; details: Selectivity number of off-targets 0.0, Selectivity number of targets 233.0, Source Knowledge https://www.sciencedirect.com/science/article/pii/S2451945619300674?via%3Dihub, at 1 µM
[15] = molecular target: Mitogen-activated protein kinase 3 (Homo sapiens, UniProt P27361); details: at 10 µM
[16] = molecular target: T3, Tyrosine-protein kinase receptor TYRO3 (Homo sapiens) (UniProt Q06418); assay: Selectivity interaction (KinomeScan (DiscoverX)) EUB0001619a TYRO3; details: at 1 µM
T3 sequence (whole entry): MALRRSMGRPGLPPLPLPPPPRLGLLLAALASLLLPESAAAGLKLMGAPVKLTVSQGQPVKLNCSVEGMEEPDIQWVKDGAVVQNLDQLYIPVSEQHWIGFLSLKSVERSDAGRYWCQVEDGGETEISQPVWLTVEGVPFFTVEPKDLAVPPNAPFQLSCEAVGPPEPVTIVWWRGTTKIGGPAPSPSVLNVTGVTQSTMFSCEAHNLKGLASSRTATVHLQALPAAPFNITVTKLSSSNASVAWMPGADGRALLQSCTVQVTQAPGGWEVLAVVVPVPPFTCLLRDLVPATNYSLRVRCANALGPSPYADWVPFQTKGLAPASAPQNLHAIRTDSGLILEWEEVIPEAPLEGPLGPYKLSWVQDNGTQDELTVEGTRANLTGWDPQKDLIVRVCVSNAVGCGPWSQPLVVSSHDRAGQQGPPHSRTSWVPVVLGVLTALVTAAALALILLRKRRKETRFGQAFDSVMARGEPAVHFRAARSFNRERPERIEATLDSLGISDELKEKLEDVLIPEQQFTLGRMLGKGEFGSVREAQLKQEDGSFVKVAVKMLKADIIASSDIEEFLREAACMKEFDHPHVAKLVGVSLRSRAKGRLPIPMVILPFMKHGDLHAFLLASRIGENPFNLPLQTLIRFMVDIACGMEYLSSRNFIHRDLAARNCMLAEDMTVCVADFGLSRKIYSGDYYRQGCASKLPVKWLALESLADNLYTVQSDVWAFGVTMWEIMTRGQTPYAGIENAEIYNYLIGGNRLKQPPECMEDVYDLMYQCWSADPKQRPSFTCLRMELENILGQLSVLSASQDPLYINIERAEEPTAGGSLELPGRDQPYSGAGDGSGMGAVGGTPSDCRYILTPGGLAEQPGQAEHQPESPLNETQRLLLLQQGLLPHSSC

Ephrin type-A receptor 2 (Homo sapiens), sequence (P29317 whole entry): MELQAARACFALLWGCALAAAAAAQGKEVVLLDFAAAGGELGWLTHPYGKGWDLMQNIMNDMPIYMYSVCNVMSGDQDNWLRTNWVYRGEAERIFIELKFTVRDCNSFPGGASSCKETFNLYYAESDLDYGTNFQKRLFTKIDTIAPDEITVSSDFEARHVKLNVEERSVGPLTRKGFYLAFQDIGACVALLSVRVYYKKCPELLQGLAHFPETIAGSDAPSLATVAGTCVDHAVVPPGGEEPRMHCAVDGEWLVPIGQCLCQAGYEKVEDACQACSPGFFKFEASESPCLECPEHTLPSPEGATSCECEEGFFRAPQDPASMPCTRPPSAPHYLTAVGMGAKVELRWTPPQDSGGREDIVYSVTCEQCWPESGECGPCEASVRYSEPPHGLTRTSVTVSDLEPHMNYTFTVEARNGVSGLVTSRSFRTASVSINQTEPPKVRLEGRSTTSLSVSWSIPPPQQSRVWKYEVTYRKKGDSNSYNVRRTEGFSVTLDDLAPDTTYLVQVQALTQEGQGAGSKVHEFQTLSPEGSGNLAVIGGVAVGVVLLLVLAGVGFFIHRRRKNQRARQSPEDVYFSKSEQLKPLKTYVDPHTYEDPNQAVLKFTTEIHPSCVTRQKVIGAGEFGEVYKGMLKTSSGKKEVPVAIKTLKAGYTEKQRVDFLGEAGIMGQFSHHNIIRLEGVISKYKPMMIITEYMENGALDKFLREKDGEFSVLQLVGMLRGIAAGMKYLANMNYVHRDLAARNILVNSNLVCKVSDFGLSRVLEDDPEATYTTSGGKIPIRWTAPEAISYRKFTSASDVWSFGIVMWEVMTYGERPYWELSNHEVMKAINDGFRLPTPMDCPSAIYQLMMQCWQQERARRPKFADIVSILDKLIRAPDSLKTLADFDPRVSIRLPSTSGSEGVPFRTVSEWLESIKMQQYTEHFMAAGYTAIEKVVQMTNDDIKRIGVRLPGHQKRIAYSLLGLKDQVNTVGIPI
Calcium/calmodulin-dependent protein kinase type II subunit beta (Homo sapiens), sequence (Q13554 whole entry): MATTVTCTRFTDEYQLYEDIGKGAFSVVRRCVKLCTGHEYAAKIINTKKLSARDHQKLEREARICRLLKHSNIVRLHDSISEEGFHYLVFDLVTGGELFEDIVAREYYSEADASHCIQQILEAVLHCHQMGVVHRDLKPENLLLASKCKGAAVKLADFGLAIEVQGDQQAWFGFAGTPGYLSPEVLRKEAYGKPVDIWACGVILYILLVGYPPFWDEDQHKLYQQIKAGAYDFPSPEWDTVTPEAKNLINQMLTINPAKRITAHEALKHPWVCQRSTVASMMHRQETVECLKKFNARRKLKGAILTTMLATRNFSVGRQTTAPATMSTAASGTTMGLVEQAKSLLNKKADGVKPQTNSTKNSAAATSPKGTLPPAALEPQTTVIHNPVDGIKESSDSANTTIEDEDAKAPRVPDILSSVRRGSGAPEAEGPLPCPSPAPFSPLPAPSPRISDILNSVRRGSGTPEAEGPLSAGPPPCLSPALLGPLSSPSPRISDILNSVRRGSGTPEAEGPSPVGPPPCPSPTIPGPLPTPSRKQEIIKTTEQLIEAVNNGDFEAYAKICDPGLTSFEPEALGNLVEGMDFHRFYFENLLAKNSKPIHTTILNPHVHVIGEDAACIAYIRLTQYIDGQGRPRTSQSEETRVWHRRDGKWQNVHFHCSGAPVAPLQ
Mitogen-activated protein kinase kinase kinase 10 (Homo sapiens), sequence (Q02779 whole entry, looked up): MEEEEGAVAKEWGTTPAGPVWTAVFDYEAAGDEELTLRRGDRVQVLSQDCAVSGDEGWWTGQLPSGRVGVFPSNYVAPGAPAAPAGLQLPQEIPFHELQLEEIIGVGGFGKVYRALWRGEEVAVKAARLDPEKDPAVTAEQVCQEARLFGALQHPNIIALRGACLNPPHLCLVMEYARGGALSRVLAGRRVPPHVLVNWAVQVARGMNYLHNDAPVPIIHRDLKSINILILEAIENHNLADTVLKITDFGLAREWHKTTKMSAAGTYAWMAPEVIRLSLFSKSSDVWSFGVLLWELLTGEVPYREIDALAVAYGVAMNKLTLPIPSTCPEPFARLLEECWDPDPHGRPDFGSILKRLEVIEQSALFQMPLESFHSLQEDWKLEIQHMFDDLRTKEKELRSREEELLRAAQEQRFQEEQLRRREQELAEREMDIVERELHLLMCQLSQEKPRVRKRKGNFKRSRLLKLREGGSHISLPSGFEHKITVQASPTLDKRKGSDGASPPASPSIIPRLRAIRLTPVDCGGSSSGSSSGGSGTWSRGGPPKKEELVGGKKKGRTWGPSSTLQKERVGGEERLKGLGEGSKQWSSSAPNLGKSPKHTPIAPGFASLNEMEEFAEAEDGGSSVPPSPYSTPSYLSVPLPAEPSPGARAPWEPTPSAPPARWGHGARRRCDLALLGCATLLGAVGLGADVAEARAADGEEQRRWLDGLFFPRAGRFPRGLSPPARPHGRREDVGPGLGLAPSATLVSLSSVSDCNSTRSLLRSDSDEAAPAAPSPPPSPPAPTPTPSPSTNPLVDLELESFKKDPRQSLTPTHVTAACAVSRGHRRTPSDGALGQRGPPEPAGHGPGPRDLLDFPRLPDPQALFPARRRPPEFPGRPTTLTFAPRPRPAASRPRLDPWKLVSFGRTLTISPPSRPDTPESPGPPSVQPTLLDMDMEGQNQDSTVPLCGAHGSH
Ribosomal protein S6 kinase alpha-3, sequence (P51812 whole entry): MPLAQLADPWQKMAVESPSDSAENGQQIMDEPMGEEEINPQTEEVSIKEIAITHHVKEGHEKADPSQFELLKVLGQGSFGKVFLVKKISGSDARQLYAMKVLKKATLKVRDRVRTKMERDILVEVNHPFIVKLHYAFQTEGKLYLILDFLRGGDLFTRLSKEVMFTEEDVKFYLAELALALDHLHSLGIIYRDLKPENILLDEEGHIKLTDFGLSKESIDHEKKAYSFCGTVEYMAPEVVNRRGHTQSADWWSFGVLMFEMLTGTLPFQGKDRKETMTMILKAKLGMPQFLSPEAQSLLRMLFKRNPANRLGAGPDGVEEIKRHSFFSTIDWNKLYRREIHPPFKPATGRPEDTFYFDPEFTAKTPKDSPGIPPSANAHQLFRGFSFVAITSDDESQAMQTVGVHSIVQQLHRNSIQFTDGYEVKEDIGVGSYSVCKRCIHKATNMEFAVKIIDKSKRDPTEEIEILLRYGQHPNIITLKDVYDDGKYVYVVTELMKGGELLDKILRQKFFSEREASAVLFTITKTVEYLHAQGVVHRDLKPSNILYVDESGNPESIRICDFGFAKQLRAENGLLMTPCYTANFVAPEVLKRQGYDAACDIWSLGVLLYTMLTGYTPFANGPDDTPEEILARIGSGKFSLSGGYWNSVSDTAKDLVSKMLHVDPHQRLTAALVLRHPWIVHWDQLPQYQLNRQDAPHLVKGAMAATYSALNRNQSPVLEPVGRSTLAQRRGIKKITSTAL
Glycogen synthase kinase-3 alpha, sequence (P49840 2-483 limits assumed): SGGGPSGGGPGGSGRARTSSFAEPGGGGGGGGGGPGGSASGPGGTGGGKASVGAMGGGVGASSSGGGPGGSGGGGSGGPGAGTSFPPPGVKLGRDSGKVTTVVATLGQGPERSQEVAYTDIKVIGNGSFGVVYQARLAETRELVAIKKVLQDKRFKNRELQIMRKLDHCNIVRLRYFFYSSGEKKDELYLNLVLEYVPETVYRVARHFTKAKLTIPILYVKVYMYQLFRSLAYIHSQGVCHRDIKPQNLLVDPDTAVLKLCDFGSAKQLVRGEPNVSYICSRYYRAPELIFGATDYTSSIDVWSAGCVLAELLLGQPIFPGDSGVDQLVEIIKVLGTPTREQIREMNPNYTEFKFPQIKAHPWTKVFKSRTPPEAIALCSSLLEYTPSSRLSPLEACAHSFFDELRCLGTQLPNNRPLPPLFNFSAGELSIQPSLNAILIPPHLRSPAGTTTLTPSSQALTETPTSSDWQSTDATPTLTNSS
RAF proto-oncogene serine/threonine-protein kinase (Homo sapiens), sequence (P04049 whole entry): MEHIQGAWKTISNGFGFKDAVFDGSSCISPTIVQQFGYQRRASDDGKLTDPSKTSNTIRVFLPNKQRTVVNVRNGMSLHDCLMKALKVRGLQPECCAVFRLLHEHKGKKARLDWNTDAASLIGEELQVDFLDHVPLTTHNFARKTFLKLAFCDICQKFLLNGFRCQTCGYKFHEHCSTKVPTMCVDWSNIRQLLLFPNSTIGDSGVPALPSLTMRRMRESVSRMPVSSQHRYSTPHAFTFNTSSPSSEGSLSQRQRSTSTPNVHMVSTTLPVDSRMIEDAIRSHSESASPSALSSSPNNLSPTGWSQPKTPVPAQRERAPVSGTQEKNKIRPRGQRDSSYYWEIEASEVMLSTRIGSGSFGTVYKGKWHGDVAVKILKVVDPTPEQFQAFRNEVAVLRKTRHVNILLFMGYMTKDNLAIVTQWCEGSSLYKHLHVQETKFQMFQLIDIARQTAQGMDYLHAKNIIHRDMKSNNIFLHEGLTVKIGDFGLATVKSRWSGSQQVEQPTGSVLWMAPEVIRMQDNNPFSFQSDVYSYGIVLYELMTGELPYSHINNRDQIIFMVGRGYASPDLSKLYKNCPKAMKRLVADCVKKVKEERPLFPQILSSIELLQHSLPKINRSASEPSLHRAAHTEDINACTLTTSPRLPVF
Serine/threonine-protein kinase 35 (Homo sapiens), sequence (Q8TDR2 whole entry): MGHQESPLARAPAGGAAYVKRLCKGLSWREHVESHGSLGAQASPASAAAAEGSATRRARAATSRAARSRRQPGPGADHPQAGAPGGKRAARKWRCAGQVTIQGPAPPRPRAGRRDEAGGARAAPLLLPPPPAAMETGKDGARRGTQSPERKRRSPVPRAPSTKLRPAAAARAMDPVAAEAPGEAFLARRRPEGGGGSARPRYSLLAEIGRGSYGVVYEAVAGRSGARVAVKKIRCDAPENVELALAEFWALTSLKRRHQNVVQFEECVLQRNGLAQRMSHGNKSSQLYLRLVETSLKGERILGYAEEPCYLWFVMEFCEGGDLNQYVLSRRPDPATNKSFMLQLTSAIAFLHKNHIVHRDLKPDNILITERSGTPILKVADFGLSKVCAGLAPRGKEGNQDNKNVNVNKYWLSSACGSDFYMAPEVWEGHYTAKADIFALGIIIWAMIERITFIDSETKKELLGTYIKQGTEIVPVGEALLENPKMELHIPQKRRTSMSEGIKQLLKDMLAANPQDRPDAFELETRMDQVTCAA

- % of control [1]: 100%
- % of control [2]: 100%
Structure (SMILES): CCN(CC)CCCCNc1ncc2cc(-c3cc(OC)cc(OC)c3)c(NC(=O)NC(C)(C)C)nc2n1

- % of inhibition [3]: 20%
- % of inhibition [4]: -2.18%
Structure (SMILES): CC[C@@H]1[C@H](F)C(=O)N[C@@H]1COc1nccc2cc(C(N)=O)c(OC)cc12 [ZIMLOVISERTIB]

Structure (SMILES): CN(C)C(=O)Cn1cc(-c2ccc(-c3cncc4ccccc34)cc2)cn1
- % of control [5]: 84%

Structure (SMILES): Cc1cc(F)c(C(=O)Nc2cccc(-c3nncn3C(C)C)n2)cc1-n1cnc(C2CC2)c1
- % of control [6]: 98%

Structure (SMILES): COCC(=O)NC/C=C/c1ccc2ncnc(Nc3ccc(Oc4ccc(C)nc4)c(C)c3)c2c1 [CP-724714]
- % of control [7]: 100%

Structure (SMILES): COc1cc(Nc2nc(C)cc(-c3cnn4nc(OC)ccc34)n2)cc(C(F)(F)F)c1
- % of control [8]: 100%

Structure (SMILES): CN(C)C/C=C/C(=O)Nc1ccc(C(=O)N2CCCC(Nc3ncc(Cl)c(-c4c[nH]c5ccccc45)n3)C2)cc1 (stereo unspecified)
- % of control [9]: 88%
- % of control [10]: 95%

Structure (SMILES): CC(C)(O)[C@H](F)CN1Cc2cc(NC(=O)c3cnn4cccnc34)c(N3CCOCC3)cc2C1=O
- dTM [11]: 0.1 K

Structure (SMILES): CN(C)CCOc1ccc(-c2nc(-c3ccncc3)c(-c3ccc4c(c3)CC/C4=N\O)[nH]2)cc1
- % of control [12]: 83%
- % of control [13]: 88%

Structure (SMILES): C=CC(=O)Nc1ccc(C(=O)Nc2[nH]nc3c2CN(C(=O)N[C@H](CN(C)C)c2ccccc2)C3(C)C)cc1
- % of engagement [14]: -9.5%

Structure (SMILES): Cc1cc([C@@H](C)Nc2ccccc2C(=O)O)c2nc(N3CCOCC3)cc(=O)n2c1 [AZD-6482]
- % of control [15]: 95%

Structure (SMILES): N#Cc1cccc(-c2c[nH]c3ncnc(N4CCOCC4)c23)c1
- % of control [16]: 100%
